Measured values as given in US8853258B2, “C-linked hydroxamic acid derivatives useful as antibacterial agents” (Pfizer Inc., priority 2009, dated 2014).
Converted amounts (≈) assume the structure as drawn.

Experiments:
Type in all cases: cell-based
[1] = test system: Acinetobacter baumanii/haemolyticus: Multidrug-resistant clinical isolate (AB-3167); test: MIC determination (CLSI), AB-3167; details: for MIC: Acinetobacter baumannii, Table 1, read-out: AB-3167 (MIC); for AB-3167 MIC: Acinetobacter baumanii/haemolyticus multidrug-resistant clinical isolate AB-3167
Description: (§1) The in vitro antibacterial activity of compounds described in the Examples was evaluated by minimum inhibitory concentration (MIC) testing according to Clinical and Laboratory Standards Institute (CLSI, formerly NCCLS) guidelines. See: Clinical and Laboratory Standards Institute. Methods for Dilution Antimicrobial Susceptibility Tests for Bacteria that Grow Aerobically; Approved Standard-Seventh Edition. CLSI document M7-A7 [ISBN 1-56238-587-9]. Clinical and Laboratory Standards Institute, 940 West Valley Road, Suite 1400, Wayne, Pa. 19087-1898 USA, 2006; also Clinical and Laboratory Standards Institute. Performance Standards for Antimicrobial Susceptibility Testing; Eighteenth Informational Supplement. CLSI document M100-S18 [ISBN1-56238-653-0]. Clinical and Laboratory Standards Institute.
(§2) The following bacterial strains were used in these MIC determinations:
2) Acinetobacter baumanii/haemolyticus: Multidrug-resistant clinical isolate labeled as AB-3167 in Tables 1, 2 and 3;

[2] = test system: Pseudomonas aeruginosa UI-18: Wild-type (PA-7); test: MIC determination (CLSI), PA-7; details: for MIC: Pseudomonas aeruginosa, Table 1, read-out: PA-7 (MIC); for PA-7 MIC: Pseudomonas aeruginosa UI-18 wild-type PA-7
Description: as §1, §2
1) Pseudomonas aeruginosa UI-18: Wild-type, labeled as PA-7 in Tables 1, 2 and 3;

[3] = test system: Escherichia coli EC-1: VOGEL, mouse virulent; test: MIC determination (CLSI), EC-1; details: for MIC: Escherichia coli, read-out: EC-1: (MIC); for EC-1 MIC: Escherichia coli EC-1 VOGEL, mouse virulent
Description: as §1, §2
3) Escherichia coli EC-1: VOGEL, mouse virulent labeled as EC-1 in Tables 1, 2 and 3;

[4] = test system: Klebsiella pneumoniae: Ciprofloxacin-resistant isolate, ESBL, clinical isolate (KP-3700); test: MIC determination (CLSI), KP-3700
Description: as §1, §2
4) Klebsiella pneumoniae: Ciprofloxacin-resistant isolate, expresses extended-spectrum beta-lactamases (ESBL), clinical isolate, labeled as KP-3700 in Tables 1, 2, and 3.

SMILES | MIC [1] | MIC [2] | MIC [3] | KP-3700 MIC [4] | AB-3167 MIC [1] | PA-7 MIC [2] | EC-1 MIC [3]
CC(CCc1ccc(-c2ccccc2O)cc1)(C(=O)NO)S(C)(=O)=O (stereo not shown) [Example 8, N-Hydroxy-4-(2′-hydroxybiphenyl-4-yl)-2-methyl-2-(methylsulfonyl)butanamide] | ≥ 64 µg/mL | 8 µg/mL (≈ 22 µM) | ≥ 64 µg/mL | ≧64 mg/L | – | – | –
CC(CCc1ccc(Oc2ccccc2)cc1)(C(=O)NO)S(C)(=O)=O (stereo not shown) [Example 10, N-Hydroxy-2-methyl-2-(methylsulfonyl)-4-(4-phenoxyphenyl)butanamide] | 32 µg/mL (≈ 88 µM) | 8 µg/mL (≈ 22 µM) | 16 µg/mL (≈ 44 µM) | 32 µg/mL | – | – | –
CC(CCc1ccc(-n2cccn2)cc1)(C(=O)NO)S(C)(=O)=O (stereo not shown) [Example 11, N-Hydroxy-2-methyl-2-(methylsulfonyl)-4-[4-(1H-pyrazol-1-yl)phenyl]butanamide] | ≥ 64 µg/mL | 16 µg/mL (≈ 47.4 µM) | ≥ 64 µg/mL | ≧64 mg/L | – | – | –
COc1cc(CCC(C)(C(=O)NO)S(C)(=O)=O)ccc1-c1ccc(F)cc1 (stereo not shown) [Example 20, 4-(4′-Fluoro-2-methoxybiphenyl-4-yl)-N-hydroxy-2-methyl-2-(methylsulfonyl)butanamide] | ≥ 64 µg/mL | 16 µg/mL (≈ 40.5 µM) | 1 µg/mL (≈ 2.53 µM) | 8 µg/mL | – | – | –
CS(=O)(=O)C(CCc1ccc(-c2ccc(F)cc2)cc1)C(=O)NO (stereo not shown) [Example 24, 4-(4′-Fluorobiphenyl-4-yl)-N-hydroxy-2-(methylsulfonyl)butanamide] | 32 µg/mL (≈ 91.1 µM) | 1 µg/mL (≈ 2.85 µM) | 32 µg/mL (≈ 91.1 µM) | 32 µg/mL | – | – | –
CC(CCc1ccc(-c2ccc(F)cc2)cc1)(C(=O)NO)S(C)(=O)=O (stereo not shown) [Example 27] | – | – | – | 4 µg/mL | 8 µg/mL | 1 µg/mL | 2 µg/mL
CS(=O)(=O)C(CCc1ccc(-c2ccc(C#N)cc2)cc1)C(=O)NO (stereo not shown) [Example 28] | – | – | – | ≧64 mg/L | ≧64 mg/L | 2 µg/mL | 32 µg/mL
CC(CCc1ccc(-c2ccc(C#N)cc2)cc1)(C(=O)NO)S(C)(=O)=O (stereo not shown) [Example 29] | – | – | – | 2 µg/mL | ≧64 mg/L | 1 µg/mL | 1 µg/mL
CC(CCc1ccc(Br)cc1)(C(=O)NO)S(C)(=O)=O (stereo not shown) [Example 32] | – | – | – | ≧64 mg/L | ≧64 mg/L | 32 µg/mL | 32 µg/mL
COc1ccc(-c2ccc(CCC(C)(C(=O)NO)S(C)(=O)=O)cc2)cc1OC (stereo not shown) [Example 33] | – | – | – | 32 µg/mL | ≧64 mg/L | 16 µg/mL | 16 µg/mL
CN(C)c1ccc(-c2ccc(CCC(C)(C(=O)NO)S(C)(=O)=O)cc2)cn1 (stereo not shown) [Example 35] | – | – | – | 16 µg/mL | ≧64 mg/L | 32 µg/mL | 4 µg/mL
CS(=O)(=O)C(CCc1ccc(-c2ccccc2)cc1)C(=O)NO (stereo not shown) [Example 36] | – | – | – | 16 µg/mL | 32 µg/mL | 2 µg/mL | 16 µg/mL
Cc1cc(-c2ccc(CCC(C)(C(=O)NO)S(C)(=O)=O)cc2)cnc1N(C)C (stereo not shown) [Example 37] | – | – | – | ≧64 mg/L | ≧64 mg/L | 16 µg/mL | 16 µg/mL
CC(CCc1ccc(-c2cnc(N3CCOCC3)nc2)cc1)(C(=O)NO)S(C)(=O)=O (stereo not shown) [Example 39] | – | – | – | 32 µg/mL | ≧64 mg/L | ≧64 mg/L | 4 µg/mL
CSc1ccc(-c2ccc(CCC(C)(C(=O)NO)S(C)(=O)=O)cc2)cc1 (stereo not shown) [Example 40] | – | – | – | 2 µg/mL | 16 µg/mL | 2 µg/mL | 0.5 µg/mL
COc1cccc(F)c1-c1ccc(CCC(C)(C(=O)NO)S(C)(=O)=O)cc1 (stereo not shown) [Example 41] | – | – | – | ≧64 mg/L | ≧64 mg/L | 8 µg/mL | 16 µg/mL
CC(C)c1cccc(-c2ccc(CCC(C)(C(=O)NO)S(C)(=O)=O)cc2)c1 (stereo not shown) [Example 43] | – | – | – | 16 µg/mL | 4 µg/mL | 8 µg/mL | 4 µg/mL
CC(CCc1ccc(-c2ccc(C#N)c(F)c2)cc1)(C(=O)NO)S(C)(=O)=O (stereo not shown) [Example 45] | – | – | – | 4 µg/mL | ≧64 mg/L | 1 µg/mL | 0.5 µg/mL
Cc1csc(-c2ccc(CCC(C)(C(=O)NO)S(C)(=O)=O)cc2)c1 (stereo not shown) [Example 46] | – | – | – | 4 µg/mL | ≧64 mg/L | 2 µg/mL | 2 µg/mL

SMILES | MIC [1] | MIC [2] | MIC [3] | KP-3700 MIC [4] | AB-3167 MIC [1] | PA-7 MIC [2] | EC-1 MIC [3]
COc1ccc(OC)c(-c2ccc(CCC(C)(C(=O)NO)S(C)(=O)=O)cc2)c1 (stereo not shown) [Example 48] | – | – | – | ≧64 mg/L | 16 µg/mL | ≧64 mg/L | 16 µg/mL
Cn1ccnc1-c1ccc(-c2ccc(CCC(C)(C(=O)NO)S(C)(=O)=O)cc2)cc1 (stereo not shown) [Example 92] | – | – | – | 32 µg/mL | ≧64 mg/L | 32 µg/mL | 16 µg/mL
CC(CCc1ccc(-c2ccc(C#N)nc2)cc1)(C(=O)NO)S(C)(=O)=O (stereo not shown) [Example 93] | – | – | – | 32 µg/mL | ≧64 mg/L | 4 µg/mL | 16 µg/mL
CSc1ccccc1-c1ccc(CCC(C)(C(=O)NO)S(C)(=O)=O)cc1 (stereo not shown) [Example 94] | – | – | – | ≧64 mg/L | ≧64 mg/L | 32 µg/mL | 32 µg/mL
CC(CCc1ccc(-c2ccoc2)cc1)(C(=O)NO)S(C)(=O)=O (stereo not shown) [Example 95] | – | – | – | 16 µg/mL | ≧64 mg/L | 4 µg/mL | 16 µg/mL
CC(CCc1ccc(-c2ccc(C(N)=O)cc2)cc1)(C(=O)NO)S(C)(=O)=O (stereo not shown) [Example 96] | – | – | – | ≧64 mg/L | ≧64 mg/L | 8 µg/mL | ≧64 mg/L
CC(CCc1ccc(-c2cc(F)cc(F)c2)cc1)(C(=O)NO)S(C)(=O)=O (stereo not shown) [Example 97] | – | – | – | 4 µg/mL | 8 µg/mL | 1 µg/mL | 2 µg/mL
Cc1ccc(-c2ccc(CCC(C)(C(=O)NO)S(C)(=O)=O)cc2)o1 (stereo not shown) [Example 99] | – | – | – | 32 µg/mL | ≧64 mg/L | 8 µg/mL | 16 µg/mL
COc1ccccc1-c1ccc(CCC(C)(C(=O)NO)S(C)(=O)=O)cc1 (stereo not shown) [Example 100] | – | – | – | ≧64 mg/L | ≧64 mg/L | 8 µg/mL | 32 µg/mL
Cn1cc(-c2ccc(CCC(C)(C(=O)NO)S(C)(=O)=O)cc2)cn1 (stereo not shown) [Example 101] | – | – | – | 32 µg/mL | ≧64 mg/L | 8 µg/mL | 32 µg/mL
CC(C)c1ccc(-c2ccc(CCC(C)(C(=O)NO)S(C)(=O)=O)cc2)cc1 (stereo not shown) [Example 102] | – | – | – | 8 µg/mL | 4 µg/mL | 4 µg/mL | 2 µg/mL
CC(CCc1ccc(-c2ccco2)cc1)(C(=O)NO)S(C)(=O)=O (stereo not shown) [Example 103] | – | – | – | 16 µg/mL | 32 µg/mL | 4 µg/mL | 8 µg/mL
CC(CCc1ccc(-c2ccccc2C#N)cc1)(C(=O)NO)S(C)(=O)=O (stereo not shown) [Example 105] | – | – | – | 32 µg/mL | ≧64 mg/L | 16 µg/mL | 8 µg/mL
CC(CCc1ccc(-c2ccc(CC#N)cc2)cc1)(C(=O)NO)S(C)(=O)=O (stereo not shown) [Example 106] | – | – | – | 8 µg/mL | ≧64 mg/L | 1 µg/mL | 2 µg/mL
C[C@@](CCc1ccc(-c2ccc(F)cc2)cc1)(C(=O)NO)S(C)(=O)=O [Example 110] | – | – | – | 4 µg/mL | 8 µg/mL | 0.25 µg/mL | 2 µg/mL
CC(CCc1ccc(-c2ccc(CN)cc2)cc1)(C(=O)NO)S(C)(=O)=O (stereo not shown) [Example 111] | – | – | – | ≧64 mg/L | ≧64 mg/L | 32 µg/mL | ≧64 mg/L
CC(CCc1ccc(-c2ccc(CO)cc2)cc1)(C(=O)NO)S(C)(=O)=O (stereo not shown) [Example 112] | – | – | – | ≧64 mg/L | ≧64 mg/L | 4 µg/mL | ≧64 mg/L
CC(CCc1ccc(-c2ccc(CCN)cc2)cc1)(C(=O)NO)S(C)(=O)=O (stereo not shown) [Example 114] | – | – | – | ≧64 mg/L | ≧64 mg/L | 16 µg/mL | ≧64 mg/L
